Target: T1, human EGF-R (Homo sapiens, UniProt P00533)
T1 construct: expressed in transfected cells
Assay: Inhibition of the EGFR-dependent proliferation (EGF-stimulated cell line expressing human EGF-R, Cell Titer 96 assay)
Format: cell-based
Conditions: murine haematopoietic cell line expressing functional human EGF-R; 20 ng/ml human EGF; 48 hours at 37° C.
Experimental: A murine haematopoietic cell line is genetically modified so as to express functional human EGF-R. The proliferation of this cell line can therefore be stimulated by EGF.
The test is carried out as follows: • The cells are cultivated in RPMI/1640 medium. The proliferation is stimulated with 20 ng/ml of human EGF (Promega). To investigate the inhibitory activity of the compounds according to the invention these compounds are dissolved in 100% dimethylsulphoxide (DMSO) and added to the cultures in various dilutions, the maximum DMSO concentration being 1%. The cultures are incubated for 48 hours at 37° C.
In order to determine the inhibitory activity of the compounds according to the invention the relative cell number is measured in O.D. units using the Cell Titer 96™ AQueous Non-Radioactive Cell Proliferation Assay (Promega). The relative cell number is calculated as a percentage of the control and the concentration of active substance which inhibits the proliferation of the cells by 50% (IC50) is derived therefrom.

T1 sequence (P00533 25-1210): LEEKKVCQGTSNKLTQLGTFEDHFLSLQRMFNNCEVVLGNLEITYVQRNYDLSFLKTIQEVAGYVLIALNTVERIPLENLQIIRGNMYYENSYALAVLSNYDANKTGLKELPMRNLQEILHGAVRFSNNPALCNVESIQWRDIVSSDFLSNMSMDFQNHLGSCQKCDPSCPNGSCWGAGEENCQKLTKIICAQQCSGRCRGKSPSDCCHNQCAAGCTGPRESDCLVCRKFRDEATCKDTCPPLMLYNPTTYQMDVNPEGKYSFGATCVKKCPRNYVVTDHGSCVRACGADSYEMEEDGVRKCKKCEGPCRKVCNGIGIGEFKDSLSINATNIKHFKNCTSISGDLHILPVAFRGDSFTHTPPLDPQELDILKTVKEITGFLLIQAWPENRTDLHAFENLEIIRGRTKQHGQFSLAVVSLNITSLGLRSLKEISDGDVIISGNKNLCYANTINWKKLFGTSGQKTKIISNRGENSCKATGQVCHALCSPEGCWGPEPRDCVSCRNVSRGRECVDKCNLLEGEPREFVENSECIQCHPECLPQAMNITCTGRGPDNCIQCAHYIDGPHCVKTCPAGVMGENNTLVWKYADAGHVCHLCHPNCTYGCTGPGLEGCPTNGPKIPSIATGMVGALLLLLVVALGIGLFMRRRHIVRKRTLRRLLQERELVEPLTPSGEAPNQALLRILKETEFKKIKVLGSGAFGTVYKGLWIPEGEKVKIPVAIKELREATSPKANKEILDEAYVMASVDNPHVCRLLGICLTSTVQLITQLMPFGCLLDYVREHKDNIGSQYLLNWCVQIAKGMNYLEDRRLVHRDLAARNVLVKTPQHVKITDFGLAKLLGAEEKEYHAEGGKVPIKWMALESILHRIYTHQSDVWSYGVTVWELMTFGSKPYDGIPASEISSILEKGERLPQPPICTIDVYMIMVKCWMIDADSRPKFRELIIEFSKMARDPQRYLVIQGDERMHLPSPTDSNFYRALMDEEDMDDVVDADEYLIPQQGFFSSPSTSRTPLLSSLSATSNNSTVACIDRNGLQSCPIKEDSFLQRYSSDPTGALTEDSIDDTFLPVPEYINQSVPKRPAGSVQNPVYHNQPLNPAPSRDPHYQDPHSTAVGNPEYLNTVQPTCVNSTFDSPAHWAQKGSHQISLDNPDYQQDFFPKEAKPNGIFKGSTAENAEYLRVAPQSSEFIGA

IC50, 1 nM:
COc1cc2ncnc(Nc3cccc(Cl)c3F)c2cc1O[C@H]1CC[C@H](N2CCOCC2)CC1 [1 (trans compound), 4-[(3-chloro-2-fluoro-phenyl)amino]-6-[trans-4-(morpholin-4-yl)-cyclohexyloxy]-7-methoxy-quinazoline]
COc1cc2ncnc(Nc3cccc(Cl)c3F)c2cc1O[C@H]1CC[C@H](N2CC[C@@H](O)C2)CC1 [1(1) (trans compound), 4-[(3-chloro-2-fluoro-phenyl)amino]-6-[(R)-trans-4-(3-hydroxy-pyrrolidin-1-yl)-cyclohexyloxy]-7-methoxy-quinazoline]
COc1cc2ncnc(Nc3cccc(Cl)c3F)c2cc1O[C@H]1CC[C@H](N2CCNC(=O)C2)CC1 [1(3) (trans compound), 4-[(3-chloro-2-fluoro-phenyl)amino]-6-[trans-4-(3-oxo-piperazin-1-yl)-cyclohexyloxy]-7-methoxy-quinazoline]
COc1cc2ncnc(Nc3cccc(Cl)c3F)c2cc1O[C@H]1CC[C@H](N2CCC[C@H]2C(N)=O)CC1 [1(5) (trans compound), 4-[(3-chloro-2-fluoro-phenyl)amino]-6-{(S)-trans-4-[2-(aminocarbonyl)-pyrrolidin-1-yl]-cyclohexyloxy]-7-methoxy-quinazoline]
COc1cc2ncnc(Nc3cccc(Cl)c3F)c2cc1O[C@H]1CC[C@H](N2CCN(C)C(=O)C2)CC1 [(36)]
COc1cc2ncnc(Nc3cccc(Cl)c3F)c2cc1O[C@H]1CC[C@H](N2CCC(C#N)CC2)CC1 [(44)]

Source: patent US7998949B2, “Bicyclic heterocycles, drugs containing said compounds, use thereof, and method for production thereof” (Boehringer Ingelheim International GmbH, priority 2007, dated 2011)
